The source of these data is patent publication US20220241402A1, “COMBINATION OF HEPATITIS B VIRUS (HBV) VACCINES AND QUINAZOLINE DERIVATIVES” (Janssen Sciences Ireland Unlimited Company, priority 2019, published 2022).

For one assay, the target named is T1, human TLR7 (Homo sapiens, UniProt Q9NYK1).
T1 construct: expressed in transfected cells; host or cells: HEK293
T1 sequence (Q9NYK1 27-1049): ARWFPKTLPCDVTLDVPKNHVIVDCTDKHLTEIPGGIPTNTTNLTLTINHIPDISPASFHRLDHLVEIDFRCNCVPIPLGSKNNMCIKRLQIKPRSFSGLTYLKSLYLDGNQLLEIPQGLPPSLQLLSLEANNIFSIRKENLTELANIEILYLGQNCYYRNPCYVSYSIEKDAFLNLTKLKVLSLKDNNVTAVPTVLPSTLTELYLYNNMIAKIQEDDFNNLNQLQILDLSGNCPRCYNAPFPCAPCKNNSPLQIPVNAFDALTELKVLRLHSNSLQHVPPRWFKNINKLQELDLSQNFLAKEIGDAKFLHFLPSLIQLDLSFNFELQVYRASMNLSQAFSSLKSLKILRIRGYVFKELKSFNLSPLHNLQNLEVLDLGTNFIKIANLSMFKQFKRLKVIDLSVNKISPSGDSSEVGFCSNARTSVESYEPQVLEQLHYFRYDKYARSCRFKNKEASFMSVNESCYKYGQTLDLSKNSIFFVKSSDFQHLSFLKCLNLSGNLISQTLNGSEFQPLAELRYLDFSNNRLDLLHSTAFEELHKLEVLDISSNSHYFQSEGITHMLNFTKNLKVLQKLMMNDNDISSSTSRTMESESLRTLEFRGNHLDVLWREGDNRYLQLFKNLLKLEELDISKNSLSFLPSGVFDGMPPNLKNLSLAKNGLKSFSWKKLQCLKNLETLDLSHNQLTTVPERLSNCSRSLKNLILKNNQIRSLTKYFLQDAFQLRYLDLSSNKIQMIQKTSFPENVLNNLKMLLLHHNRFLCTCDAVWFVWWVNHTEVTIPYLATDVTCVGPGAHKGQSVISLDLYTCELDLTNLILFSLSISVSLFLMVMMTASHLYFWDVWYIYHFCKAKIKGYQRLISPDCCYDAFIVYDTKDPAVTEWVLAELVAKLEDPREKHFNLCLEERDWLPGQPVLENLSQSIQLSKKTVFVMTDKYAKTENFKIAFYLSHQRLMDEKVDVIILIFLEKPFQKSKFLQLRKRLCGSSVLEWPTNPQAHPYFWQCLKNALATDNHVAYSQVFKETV
The assay can be described thus: TLR7 cellular NFκB-luc reporter assay. The class given is cell-based. Further details: unit not given here. To be noted: lowest effective concentration; HEK293 cells transiently transfected with TLR7 and NFκB-luc, 6 h incubation. As to the method: (§1) The ability of compounds to activate human TLR7 and/or TLR8 was assessed in a cellular reporter assay using HEK293 cells transiently transfected with a TLR7 or TLR8 expression vector and NFκB-luc reporter construct. In one instance, the TLR expression construct expresses the respective wild type sequence or a mutant sequence comprising a deletion in the second leucine-rich repeat of the TLR.
(§2) HEK293 cells were grown in culture medium (DMEM supplemented with 10% FCS and 2 mM Glutamine). For transfection of cells in 10 cm dishes, cells were detached with Trypsin-EDTA, transfected with a mix of CMV-TLR7 or TLR8 plasmid (750 ng), NFκB-luc plasmid (375 ng) and a transfection reagent and incubated 24 h at 37° C. in a humidified 5% CO2 atmosphere. Transfected cells were then detached with Trypsin-EDTA, washed in PBS and re-suspended in medium to a density of 1.67×10^5 cells/mL. Thirty microliters of cells were then dispensed into each well in 384-well plates, where 10 μL of compound in 4% DMSO was already present. Following 6 h incubation at 37° C., 5% CO2, the luciferase activity was determined by adding 15 μl of STEADY LITE PLUS substrate (PERKIN ELMER) to each well and readout performed on a VIEWLUX ULTRAHTS microplate imager (PERKIN ELMER). Dose response curves were generated from measurements performed in quadruplicates. Lowest effective concentrations (LEC) values, defined as the concentration that induces an effect which is at least two-fold above the standard deviation of the assay, were determined for each compound.
(In general: A reporter such as luciferase makes a cellular process visible.)

For another assay, the target named is T2, human TLR8 (Homo sapiens, UniProt Q9NR97).
T2 construct: expressed in transfected cells; host or cells: HEK293
T2 sequence (Q9NR97 27-1041): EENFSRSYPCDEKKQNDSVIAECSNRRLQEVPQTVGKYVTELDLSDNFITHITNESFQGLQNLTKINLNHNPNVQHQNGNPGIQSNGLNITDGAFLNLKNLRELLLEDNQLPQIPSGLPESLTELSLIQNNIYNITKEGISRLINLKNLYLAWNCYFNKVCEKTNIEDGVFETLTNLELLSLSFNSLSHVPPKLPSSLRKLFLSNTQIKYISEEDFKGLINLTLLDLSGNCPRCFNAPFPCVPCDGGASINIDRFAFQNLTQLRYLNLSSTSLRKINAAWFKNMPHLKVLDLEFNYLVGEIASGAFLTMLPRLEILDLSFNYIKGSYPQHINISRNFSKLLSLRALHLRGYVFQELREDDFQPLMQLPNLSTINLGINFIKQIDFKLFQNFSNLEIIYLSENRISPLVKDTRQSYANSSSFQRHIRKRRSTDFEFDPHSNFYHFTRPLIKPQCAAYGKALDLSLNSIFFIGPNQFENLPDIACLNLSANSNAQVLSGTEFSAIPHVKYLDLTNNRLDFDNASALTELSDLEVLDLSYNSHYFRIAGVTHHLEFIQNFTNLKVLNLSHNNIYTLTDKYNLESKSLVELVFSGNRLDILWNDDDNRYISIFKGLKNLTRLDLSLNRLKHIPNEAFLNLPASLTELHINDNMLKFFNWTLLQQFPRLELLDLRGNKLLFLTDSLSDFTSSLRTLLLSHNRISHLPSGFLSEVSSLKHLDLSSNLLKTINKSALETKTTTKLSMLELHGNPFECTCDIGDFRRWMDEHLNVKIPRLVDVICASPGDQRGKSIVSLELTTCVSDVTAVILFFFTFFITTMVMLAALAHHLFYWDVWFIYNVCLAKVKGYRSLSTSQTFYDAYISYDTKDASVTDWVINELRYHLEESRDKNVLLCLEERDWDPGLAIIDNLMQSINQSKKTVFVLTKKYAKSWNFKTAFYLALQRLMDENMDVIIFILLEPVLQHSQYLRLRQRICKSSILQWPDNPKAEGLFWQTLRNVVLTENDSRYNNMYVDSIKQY
Briefly: TLR8 cellular NFκB-luc reporter assay. The class given is cell-based. Further details: unit not given here. The note with it: lowest effective concentration; HEK293 cells transiently transfected with TLR8 and NFκB-luc, 6 h incubation. On the procedure:
as §1, §2

With `CCCC[C@H](CO)Nc1nc(N)nc2c(F)cccc12` [Compound 107, (R)-2-((2-amino-8-fluoroquinazolin-4-yl)amino)hexan-1-ol], at human TLR7, the “hTLR7-wt (LEC)” value was over 25. Besides, the “hTLR8-wt (LEC)” value on human TLR8 was 0.11. In the case of `CCCC[C@H](CO)Nc1nc(N)nc2c(Cl)cccc12` [Compound 106, (R)-2-((2-amino-8-chloroquinazolin-4-yl)amino)hexan-1-ol], on human TLR7, the “hTLR7-wt (LEC)” value is on record as over 25. Moreover, on human TLR8, the “hTLR8-wt (LEC)” value is 2.72.

As to `CCCC[C@H](CO)Nc1nc(N)nc2c(C)cccc12` [Compound 105, (R)-2-((2-amino-8-methylquinazolin-4-yl)amino)hexan-1-ol], on human TLR7, the “hTLR7-wt (LEC)” value is recorded as over 25. Further, the “hTLR8-wt (LEC)” value at human TLR8 amounted to 0.46. For `CCCC[C@H](CO)Nc1nc(N)nc2cc(C#N)ccc12` [Compound 102, (R)-2-amino-4-((1-hydroxyhexan-2-yl)amino)quinazoline-7-carbonitrile], the “hTLR7-wt (LEC)” value at human TLR7 is listed as over 100. The “hTLR8-wt (LEC)” value on human TLR8 stood at 0.14. In the same order, the values of `CC[C@H](C)[C@H](CO)Nc1nc(N)nc2cccc(F)c12` [Compound 119, (2R,3S)-2-((2-amino-5-fluoroquinazolin-4-yl)amino)-3-methylpentan-1-ol] are 1.71 and 0.09. On to `CCCC[C@H](CO)Nc1nc(N)nc2cc(C(=O)OC)ccc12` [Compound 116, Methyl (R)-2-amino-4-((1-hydroxyhexan-2-yl)amino)quinazoline-7-carboxylate], for which the “hTLR7-wt (LEC)” value at human TLR7 is recorded as over 100. In addition, the “hTLR8-wt (LEC)” value at human TLR8 stood at 0.57. Consider `CCCC[C@H](CO)Nc1nc(N)nc2cc(F)ccc12` [Compound 111, (R)-2-((2-amino-7-fluoroquinazolin-4-yl)amino)hexan-1-ol], for which, on human TLR8, the “hTLR8-wt (LEC)” value came out at 0.04. Take `CSCC[C@H](CO)Nc1nc(N)nc2cccc(F)c12` [Compound 118, (R)-2-((2-amino-5-fluoroquinazolin-4-yl)amino)-4-(methylthio)butan-1-ol]: at human TLR7, the “hTLR7-wt (LEC)” value was over 50. For the same compound, on human TLR8, the “hTLR8-wt (LEC)” value is on record as 0.7. Consider `CCCC[C@H](CO)Nc1nc(N)nc2cccc(F)c12` [Compound 100, (R)-2-((2-amino-5-fluoroquinazolin-4-yl)amino)hexan-1-ol], for which the “hTLR7-wt (LEC)” value at human TLR7 stood at 27.7. Also, the “hTLR8-wt (LEC)” value at human TLR8 worked out at 0.07.

Consider `CCCC[C@H](CO)Nc1nc(N)nc2c(F)c(F)ccc12` [Compound 117, (R)-2-((2-amino-7,8-difluoroquinazolin-4-yl)amino)hexan-1-ol], for which the “hTLR7-wt (LEC)” value at human TLR7 is over 100. Further, on human TLR8, the “hTLR8-wt (LEC)” value was 0.41. On the same counts, the results for `CCC[C@H](CO)Nc1nc(N)nc2c(C)cccc12` [Compound 104, (R)-2-((2-amino-8-methylquinazolin-4-yl)amino)pentan-1-ol] are over 25 and 5.75. For the compound `CCCC[C@H](CO)Nc1nc(N)nc2cccc(C)c12` [Compound 114, (R)-2-((2-amino-5-methylquinazolin-4-yl)amino)hexan-1-ol], at human TLR7, the “hTLR7-wt (LEC)” value is reported as over 100. With `CCCC[C@H](CO)Nc1nc(N)nc2cccc(C(F)(F)F)c12` [Compound 101, (R)-2-((2-amino-5-(trifluoromethyl)quinazolin-4-yl)amino)hexan-1-ol], at human TLR7, the “hTLR7-wt (LEC)” value is over 100. For the same compound, the “hTLR8-wt (LEC)” value at human TLR8 worked out at 0.66.

Take `CCCC[C@H](COC(=O)C(C)C)Nc1nc(N)nc2c(C)cccc12` [Compound 109, (R)-2-((2-amino-8-methylquinazolin-4-yl)amino)hexyl isobutyrate]: at human TLR7, the “hTLR7-wt (LEC)” value was over 25. For the same compound, the “hTLR8-wt (LEC)” value on human TLR8 is recorded as 0.64. For the compound `CCCC[C@H](CO)Nc1nc(N)nc2cccc(C3CC3)c12` [Compound 99, (R)-2-((2-amino-5-cyclopropylquinazolin-4-yl)amino)hexan-1-ol], on human TLR7, the “hTLR7-wt (LEC)” value is over 100. Also, the “hTLR8-wt (LEC)” value on human TLR8 was 0.35. For the compound `CCCC[C@H](CO)Nc1nc(N)nc2cccc(Cl)c12` [Compound 113, (R)-2-((2-amino-5-chloroquinazolin-4-yl)amino)hexan-1-ol], the “hTLR7-wt (LEC)” value at human TLR7 is recorded as over 100. As for `CCCC[C@H](CO)Nc1nc(N)nc2cc(-c3nnco3)ccc12` [Compound 103, (R)-2-((2-amino-7-(1,3,4-oxadiazol-2-yl)quinazolin-4-yl)amino)hexan-1-ol], the “hTLR7-wt (LEC)” value on human TLR7 is over 25. Further, the “hTLR8-wt (LEC)” value at human TLR8 turned out to be 0.38. On the same counts, the results for `CCC[C@H](CO)Nc1nc(N)nc2c(F)cccc12` [Compound 108, (R)-2-((2-amino-8-fluoroquinazolin-4-yl)amino)pentan-1-ol] are over 25 and 3.27.

In the case of `CCCC[C@H](CO)Nc1nc(N)nc2c(OC)cccc12` [Compound 115, (R)-2-((2-amino-8-methoxyquinazolin-4-yl)amino)hexan-1-ol], the “hTLR7-wt (LEC)” value at human TLR7 is over 50. Moreover, the “hTLR8-wt (LEC)” value at human TLR8 was 3.74.
